The values that follow come from paper PMC12693701, “Glucosinolate-Derived Metabolites from Barbarea vulgaris (Brassicaceae): Evaluation of Antimicrobial, Antioxidant, and Anti-Inflammatory Potentials” (Molecules, 2025).

The structures appear in SMILES notation.

In one experiment the target is T1, COX-2 (Homo sapiens, UniProt P35354).
T1 construct: purchased Abcam limited, Cambridge, UK
T1 sequence (P35354 18-604): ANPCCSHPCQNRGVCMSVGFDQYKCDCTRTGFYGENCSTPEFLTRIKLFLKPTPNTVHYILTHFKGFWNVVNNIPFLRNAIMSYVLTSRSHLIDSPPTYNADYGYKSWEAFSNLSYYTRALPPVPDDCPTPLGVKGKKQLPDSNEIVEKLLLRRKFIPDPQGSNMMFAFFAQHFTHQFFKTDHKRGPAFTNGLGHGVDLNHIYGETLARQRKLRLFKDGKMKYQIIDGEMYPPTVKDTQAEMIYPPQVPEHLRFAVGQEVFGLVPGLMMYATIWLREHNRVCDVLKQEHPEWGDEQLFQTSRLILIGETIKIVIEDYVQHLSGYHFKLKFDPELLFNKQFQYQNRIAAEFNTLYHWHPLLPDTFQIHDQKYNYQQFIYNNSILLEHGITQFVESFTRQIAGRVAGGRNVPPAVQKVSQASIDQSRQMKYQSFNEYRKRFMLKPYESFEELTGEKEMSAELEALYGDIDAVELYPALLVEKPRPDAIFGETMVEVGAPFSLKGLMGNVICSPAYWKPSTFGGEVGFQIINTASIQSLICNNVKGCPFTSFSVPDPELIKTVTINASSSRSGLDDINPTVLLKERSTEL
The experiment is described as follows: COX-2 Inhibitor Screening Kit (Fluorometric). The format is biochemical. Conditions: for inhibition at 10 µM / inhibition at 100 µM: mean ± SE, read-out: Percentage of COX-2 Inhibition. The procedure:
The COX-2 Inhibitor Screening Kit (Fluorometric) (Abcam limited, Cambridge, UK) is a sensitive assay for screening COX-2 inhibitors by fluorometrically detecting Prostaglandin G2, an intermediate formed by COX enzymatic activity The COX-2 inhibitory activity was evaluated following the manufacturer’s instructions. Tested compounds were prepared as 5 mM DMSO stock solutions, diluted 5-fold with assay buffer, and 10 µL was used per well. Controls included celecoxib (inhibitor control), DMSO (solvent control) and enzyme control. A reaction mix containing COX-2 enzyme, probe, cofactor, and assay buffer was added (80 µL), followed by 10 µL arachidonic acid/NaOH to start the reaction. Fluorescence (Ex/Em = 535/587 nm) was monitored kinetically at 25 °C. All measurements were performed in triplicate.

A further experiment relates to tested fungal strains. The experiment is described as follows: Microdilution MIC, summary over tested fungal strains. It counts as cell-based. To be noted: tested concentrations 5 to 0.039 mg/mL. The procedure: The antimicrobial activity was evaluated against 15 microorganisms. This included 11 bacterial strains: four standard strains (Staphylococcus aureus ATCC 25923, Bacillus subtilis ATCC 6633, Bacillus pumilus NCTC 8241, and Escherichia coli ATCC 25922) and six clinical or environmental isolates (Staphylococcus aureus, Escherichia coli, Bacillus cereus, Proteus mirabilis, Salmonella enterica, and Klebsiella pneumoniae). One probiotic strain, Bifidobacterium animalis subsp. lactis was tested. In addition, four fungal strains, Candida albicans ATCC 10231, Trichoderma viride ATCC 13233, Aspergillus flavus ATCC 9170, and Fusarium solani ATCC 11712 were tested. The bacterial strains were kept in glycerol stock at −80 °C and the fungal strains in paraffin oil stock at 4 °C. […]
Antimicrobial activity was evaluated by determining the minimum inhibitory concentration (MIC) and minimum microbicidal concentration (MMC) using the microdilution plate method with resazurin as an indicator [28]. […]
Each test also included growth control and sterility control. […] For molds, MIC values of the tested compound were determined as the lowest concentration that inhibited visible mycelia growth. MMC was determined by inoculation of the nutrient agar medium by plating […] of samples from wells, where no indicator color change was recorded. […]

Usually IC50 stands for the point on the concentration scale where inhibition reaches its midpoint. The low end stands for higher potency, the high end for lower potency. Broadly, the inhibition is the drop in the measured response relative to a control, in per cent. Turning to `S=C1NCC(c2ccccc2)O1` (racemic) [Compound 4, rac-5-Phenyl-1,3-oxazolidine-2-thione], on COX-2, the 50% inhibitory concentration (IC50) is above 100 µM, the inhibition at 10 µM was 4.5 ± 1.6% and the inhibition at 100 µM came out at 14.2 ± 1%.
As to `S=C1NC[C@H](c2ccccc2)O1` [Compound 5, (S)-5-phenyl-1,3-oxazolidine-2-thione], on COX-2, the IC50 is above 100 µM, the inhibition at 10 µM came to 8.11 ± 1% and the inhibition at 100 µM was determined as 21.2 ± 1.3%.
Regarding `O=C1NCC(c2ccccc2)S1` (stereo not shown) [Compound 6, 5-phenyl-1,3-thiazolidin-2-one], the “antifungal activity (in words)” value with tested fungal strains is “all fungal strains were resistant”.
